Laboratory results from US12350270B2, “Antimalarial agents” (Merck Sharp & Dohme LLC, priority 2019, dated 2025).

test system: parasites (ring stage, in human red blood cell culture); test: Parasite LDH growth assay (antiparasite potency, Parasite Assay); assay type: cell-based, Plasmodium falciparum; conditions: 0.7% rings, 2% haematocrit, 72 hours at 37° C., LDH readout of parasite growth
Summary of the method: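 Ring-stage parasites at 0.7% parasitemia and 2% haematocrit, in RPMI-Hepes/bicarbonate with 5% heat-inactivated human serum and 0.5% albumax, were added to compound-containing medium. Cultures grew 72 h at 37 °C in gassed humidified boxes. Plates were then frozen overnight at −80 °C, thawed 4 h, and growth was measured by LDH assay.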

Q: `CCC1(CC)CC(=O)N(C2c3cc(C(=O)N[C@@H]4c5ccccc5C[C@H]4O)ccc3OC2(C)C)C(=N)N1` (stereo partly drawn) [Example 127B, 3-(4,4-diethyl-2-imino-6-oxo-hexahydropyrimidin-1-yl)-N-[(1R,2R)-2-hydroxyindan-1-yl]-2,2-dimethyl-3H-benzofuran-5-carboxamide] was tested. Which EC50 did it give?
A: 222 nM

Q: With `CCC1(CC)CC(=O)N([C@H]2c3cc(C(=O)N[C@@H]4c5ccccc5C[C@H]4O)ccc3CC2OC)C(=N)N1` (stereo partly drawn) [Example 140B, (3S)-3-(4,4-diethyl-2-imino-6-oxo-hexahydropyrimidin-1-yl)-N-[(1R,2R)-2-hydroxyindan-1-yl]-2-methoxy-indane-5-carboxamide] as the compound, how does the EC50 read?
A: 1.7 nM

same assay, conditions: Plasmodium falciparum, Erythrocyte, 72 h, 0.7% rings, 2% haematocrit, 72 hours at 37° C., LDH readout of parasite growth

Q: For `CC[C@]1(C)CC(=O)N([C@H]2c3cc(C(=O)N[C@@H]4c5ccccc5C[C@H]4O)ccc3OCC2(C)C)C(=N)N1` [Example 126, (4R)-4-[(4R)-4-ethyl-2-imino-4-methyl-6-oxo-hexahydropyrimidin-1-yl]-N-[(1R,2R)-2-hydroxyindan-1-yl]-3,3-dimethyl-chromane-6-carboxamide], which EC50 is on record?
A: 14.3 nM

Q: Which EC50 does the source give for `CCC1(CC)CC(=O)N(C2c3cc(C(=O)N[C@@H]4c5ccccc5C[C@H]4O)ccc3OC2(C)C)C(=N)N1` (stereo partly drawn) [Example 127A, 3-(4,4-diethyl-2-imino-6-oxo-hexahydropyrimidin-1-yl)-N-[(1R,2R)-2-hydroxyindan-1-yl]-2,2-dimethyl-3H-benzofuran-5-carboxamide] here?
A: 202 nM

Q: How did the EC50 turn out when `CCC1(CC)CC(=O)N([C@@H]2C[C@@H](C)Oc3ccc(C(=O)N[C@@H]4c5ccccc5C[C@H]4O)cc32)C(=N)N1` [Example 128, (2R,4R)-4-(4,4-diethyl-2-imino-6-oxo-hexahydropyrimidin-1-yl)-N-[(1R,2R)-2-hydroxyindan-1-yl]-2-methyl-chromane-6-carboxamide] was run?
A: 2.8 nM

Q: With `CC[C@]1(C)CC(=O)N([C@@H]2C[C@@H](C)Oc3ccc(C(=O)N[C@@H]4c5ccccc5C[C@@]4(C)O)cc32)C(=N)N1` [Example 129, (2R,4R)-4-[(4R)-4-ethyl-2-imino-4-methyl-6-oxo-hexahydropyrimidin-1-yl]-N-[(1R,2R)-2-hydroxy-2-methyl-indan-1-yl]-2-methyl-chromane-6-carboxamide] as the compound, how does the EC50 read?
A: 3.5 nM

Q: `CC[C@]1(C)CC(=O)N([C@@H]2C[C@@H](C)c3ccc(C(=O)N[C@@H]4c5ccccc5OC[C@]4(C)O)cc32)C(=N)N1` [Example 130, (1R,3R)-3-[(4R)-4-ethyl-2-imino-4-methyl-6-oxo-hexahydropyrimidin-1-yl]-N-[(3R,4R)-3-hydroxy-3-methyl-chroman-4-yl]-1-methyl-indane-5-carboxamide] was tested. Which EC50 did it give?
A: 2.1 nM

Q: `CC[C@]1(C)CC(=O)N([C@@H]2C[C@@H](C)c3ccc(C(=O)N[C@@H]4c5ccccc5OC[C@@]4(C)O)cc32)C(=N)N1` [Example 131, (1R,3R)-3-[(4R)-4-ethyl-2-imino-4-methyl-6-oxo-hexahydropyrimidin-1-yl]-N-[(3S,4R)-3-hydroxy-3-methyl-chroman-4-yl]-1-methyl-indane-5-carboxamide] was tested. Which EC50 did it give?
A: 2 nM

Q: How did the EC50 turn out when `CCC1(CC)CC(=O)N([C@@H]2CCCOc3ccc(C(=O)N[C@@H]4c5ccccc5C[C@H]4O)cc32)C(=N)N1` [Example 132, (5R)-5-(4,4-diethyl-2-imino-6-oxo-hexahydropyrimidin-1-yl)-N-[(1R,2R)-2-hydroxyindan-1-yl]-2,3,4,5-tetrahydro-1-benzoxepine-7-carboxamide] was run?
A: 1.6 nM

Q: How did the EC50 turn out when `CC1(C)CC(=O)N(C2c3cc(C(=O)N[C@H]4CC(C)(C)Oc5ccccc54)ccc3OC2(C)C)C(=N)N1` (stereo partly drawn) [Example 134, N-[(4S)-2,2-dimethylchroman-4-yl]-3-(2-imino-4,4-dimethyl-6-oxo-hexahydropyrimidin-1-yl)-2,2-dimethyl-3H-benzofuran-5-carboxamide] was run?
A: 8.8 nM

Q: How did the EC50 turn out when `C[C@@H]1Cc2ccc(C(=O)N[C@@H]3c4ccccc4OC(C)(C)[C@H]3O)cc2[C@@H]1N1C(=N)NC(C)(C)CC1=O` [Example 135, (2R,3R)-N-[(3S,4R)-3-hydroxy-2,2-dimethyl-chroman-4-yl]-3-(2-imino-4,4-dimethyl-6-oxo-hexahydropyrimidin-1-yl)-2-methyl-indane-5-carboxamide] was run?
A: 0.9 nM

Q: `C[C@H]1Cc2ccc(C(=O)N[C@@H]3c4ccccc4OC(C)(C)[C@H]3O)cc2[C@@H]1N1C(=N)NC(C)(C)CC1=O` [Example 136, (2S,3R)-N-[(3S,4R)-3-hydroxy-2,2-dimethyl-chroman-4-yl]-3-(2-imino-4,4-dimethyl-6-oxo-hexahydropyrimidin-1-yl)-2-methyl-indane-5-carboxamide] was tested. Which EC50 did it give?
A: 1.3 nM

Q: `C[C@H]1Cc2ccc(C(=O)N[C@@H]3c4ccccc4OC(C)(C)[C@H]3O)cc2[C@H]1N1C(=N)NC(C)(C)CC1=O` [Example 137, (2S,3S)-N-[(3S,4R)-3-hydroxy-2,2-dimethyl-chroman-4-yl]-3-(2-imino-4,4-dimethyl-6-oxo-hexahydropyrimidin-1-yl)-2-methyl-indane-5-carboxamide] was tested. Which EC50 did it give?
A: 239 nM

Q: For `C[C@@H]1C[C@@H](N2C(=N)NC(C)(C)CC2=O)c2cc(C(=O)N[C@@H]3c4ccccc4OC(C)(C)[C@H]3O)ccc21` [Example 138, (1R,3R)-N-[(3S,4R)-3-hydroxy-2,2-dimethyl-chroman-4-yl]-3-(2-imino-4,4-dimethyl-6-oxo-hexahydropyrimidin-1-yl)-1-methyl-indane-5-carboxamide], which EC50 is on record?
A: 0.9 nM

Q: Which EC50 does the source give for `C[C@H]1C[C@H](N2C(=N)NC(C)(C)CC2=O)c2cc(C(=O)N[C@@H]3c4ccccc4OC(C)(C)[C@H]3O)ccc21` [Example 139, (1S,3S)-N-[(3S,4R)-3-hydroxy-2,2-dimethyl-chroman-4-yl]-3-(2-imino-4,4-dimethyl-6-oxo-hexahydropyrimidin-1-yl)-1-methyl-indane-5-carboxamide] here?
A: 180 nM

Q: For `CCC1(CC)CC(=O)N([C@H]2c3cc(C(=O)N[C@@H]4c5ccccc5C[C@H]4O)ccc3CC2OC)C(=N)N1` (stereo partly drawn) [Example 140A, (3S)-3-(4,4-diethyl-1-imino-6-oxo-hexahydroyrimidin-1-yl)-N-[(1R,2R)-2-hydroxyindan-1-yl]-2-methoxy-indane-5-carboxamide], which EC50 is on record?
A: 1.4 nM

Q: Which EC50 does the source give for `CC[C@]1(C)CC(=O)N([C@@H]2CCOc3ccc(C(=O)N[C@@H]4c5ccccc5OC[C@H]4OC)cc32)C(=N)N1` [Example 141, (4R)-4-[(4R)-4-ethyl-2-imino-4-methyl-6-oxo-hexahydropyrimidin-1-yl]-N-[(3S,4R)-3-methoxychroman-4-yl]chromane-6-carboxamide] here?
A: 8.4 nM

Q: `COC1COc2ccc(C(=O)N[C@@H]3c4ccccc4C[C@]3(C)O)cc2C1N1C(=N)NC(C)(C)CC1=O` (stereo partly drawn) [Example 142, N-[(1R,2S)-2-hydroxy-2-methyl-indan-1-yl]-4-(2-imino-4,4-dimethyl-6-oxo-hexahydropyrimidin-1-yl)-3-methoxy-chromane-6-carboxamide] was tested. Which EC50 did it give?
A: 98.5 nM

Q: With `COC1COc2ccc(C(=O)N[C@@H]3c4ccccc4C[C@@]3(C)O)cc2C1N1C(=N)NC(C)(C)CC1=O` (stereo partly drawn) [Example 143, N-[(1R,2R)-2-hydroxy-2-methyl-indan-1-yl]-4-(1-imino-4,4-dimethyl-6-oxo-hexahydropyrimidin-1-yl)-3-methoxy-chromane-6-carboxamide] as the compound, how does the EC50 read?
A: 178 nM

Q: How did the EC50 turn out when `CC1(C)CC(=O)N(C2c3cc(C(=O)N[C@H]4CC(C)(C)Oc5ccccc54)ccc3OCC2O)C(=N)N1` (stereo partly drawn) [Example 144, N-[(4S)-2,2-dimethylchroman-4-yl]-3-hydroxy-4-(2-imino-4,4-dimethyl-6-oxo-hexahydropyrimidin-1-yl)chromane-6-carboxamide] was run?
A: 194 nM
